{
  "source": "patent US20250108038A1",
  "about": "(priority 2023, published 2025)",
  "biological_target": "BSEP (Homo sapiens, UniProt O95342)",
  "sequence (O95342 whole entry)": "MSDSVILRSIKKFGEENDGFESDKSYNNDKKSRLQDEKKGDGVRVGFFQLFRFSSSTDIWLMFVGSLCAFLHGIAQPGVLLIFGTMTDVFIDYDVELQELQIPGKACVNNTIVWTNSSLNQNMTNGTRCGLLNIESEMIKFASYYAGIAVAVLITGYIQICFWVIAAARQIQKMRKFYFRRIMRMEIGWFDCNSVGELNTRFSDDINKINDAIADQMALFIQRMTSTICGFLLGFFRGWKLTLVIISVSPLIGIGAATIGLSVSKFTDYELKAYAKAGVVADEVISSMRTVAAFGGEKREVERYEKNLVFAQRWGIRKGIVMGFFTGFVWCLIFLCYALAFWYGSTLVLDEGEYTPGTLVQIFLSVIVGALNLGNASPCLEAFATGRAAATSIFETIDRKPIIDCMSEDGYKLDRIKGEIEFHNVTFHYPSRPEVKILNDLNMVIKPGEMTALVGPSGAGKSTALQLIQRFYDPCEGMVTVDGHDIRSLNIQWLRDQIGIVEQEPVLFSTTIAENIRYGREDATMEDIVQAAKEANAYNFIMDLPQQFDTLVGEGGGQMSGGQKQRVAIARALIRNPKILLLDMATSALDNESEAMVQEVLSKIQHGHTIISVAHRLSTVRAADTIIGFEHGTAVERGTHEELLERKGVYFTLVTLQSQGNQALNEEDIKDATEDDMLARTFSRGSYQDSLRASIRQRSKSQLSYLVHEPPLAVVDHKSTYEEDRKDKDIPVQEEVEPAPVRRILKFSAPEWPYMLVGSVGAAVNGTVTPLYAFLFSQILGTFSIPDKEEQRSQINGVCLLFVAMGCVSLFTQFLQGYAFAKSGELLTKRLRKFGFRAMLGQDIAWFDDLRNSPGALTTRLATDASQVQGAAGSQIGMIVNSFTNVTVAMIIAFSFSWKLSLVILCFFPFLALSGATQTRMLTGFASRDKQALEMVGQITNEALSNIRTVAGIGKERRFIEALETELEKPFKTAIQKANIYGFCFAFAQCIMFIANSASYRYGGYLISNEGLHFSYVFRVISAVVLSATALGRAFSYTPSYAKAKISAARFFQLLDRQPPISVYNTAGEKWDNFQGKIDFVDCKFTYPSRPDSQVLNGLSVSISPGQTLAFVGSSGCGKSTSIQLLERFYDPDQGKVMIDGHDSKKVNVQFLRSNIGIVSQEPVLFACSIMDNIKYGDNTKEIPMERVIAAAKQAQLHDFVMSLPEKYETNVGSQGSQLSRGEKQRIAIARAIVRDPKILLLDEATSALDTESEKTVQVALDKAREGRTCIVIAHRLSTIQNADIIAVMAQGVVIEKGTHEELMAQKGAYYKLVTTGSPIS",
  "assay": "Vesicular transport inhibition assay, BSEP (taurocholate)",
  "description": "Vesicular transport assays were performed with inside-out membrane vesicles prepared from cells overexpressing human ABC (efflux) transporters. The transporters were expressed by SOLVO Biotechnology in mammalian (HEK293) cells. The mammalian cells were stably transfected with the ABC transporter of interest. The assays were conducted according to the actual SOLVO VT assay protocols (PR-ASY-VT-General Protocol for Vesicular Transport Inhibition Assays).\nThe membrane vesicle suspension was mixed with the ice-cold transport buffer, then the probe substrate solution was added. […] (for BCRP and MDR1). […] Reactions were quenched by the addition of 200 μL of ice-cold washing buffer and immediate filtration via glass fiber filters mounted to a 96-well plate (filter plate). The filters were washed (5×200 μL of ice-cold washing buffer), dried and the amount of substrate inside the filtered vesicles was determined by liquid scintillation counting.\nIncubation with AMP provided background activity values for all data points.",
  "note": "“Also recorded” adds a separate entry of the source.",
  "data": [
    {"smiles": "OC1(c2ccc(Cl)cc2)c2ccccc2C2=NCCN21", "note": "(stereo not drawn) [Compound A, 5-(4-chlorophenyl)-2,3-dihydroimidazo[1,2-b]isoindol-5-ol, reference compound]", "values": [
      {"measurement": "maximum inhibition of BSEP-mediated taurocholate accumulation", "setting": "2-concentration assay, up to 100 μM (Compound A up to 35 μM)", "result": "did not inhibit; also recorded: not an in vitro inhibitor"},
      {"measurement": "Maximum % inhibition", "setting": "BSEP, inside-out membrane vesicles, TC (0.2 μM), NIO: No inhibition observed", "result": "NIO"},
      {"measurement": "inhibition at 35 μM", "setting": "human", "result": 2, "unit": "%"}
    ]}
  ]
}
